Like-named read-outs stand apart in the source and are kept apart here.
Experiments:
[1] = cited from earlier work
[2] = both groups, before potassium supplementation; cited from earlier work
[3] = thirty subjects with hypomagnesemia on thiazide alone; cited from earlier work
[4] = cited from earlier work; remark: listed apart in the source
[5] = Odvina, 42 mEq K qd; cited from earlier work
[6] = cited from earlier work; remark: listed apart in the source
[7] = Blood pressure during 5 months of KMgCitrate or potassium chloride with hydrochlorothiazide, 21 normal subjects (Example 1); format: in vivo, Human; conditions: for fall in diastolic blood pressure (supine) / fall in systolic blood pressure (supine): 42 mEq K per day with hydrochlorothiazide 50 mg/day, monthly for 5 months versus baseline, normal subjects; for effect on blood pressure: normal subjects given hydrochlorothiazide concurrently for 5 months, as early as one month and as long as 5 months
Source text: FIG. 2 graphically illustrates the effect of KMgCitrate (K4MgCit2) on blood pressure in 21 normal subjects. Changes in systolic and diastolic blood pressures from baseline (before treatment) occurring during 5 months of treatment with potassium chloride (KCl) or KMgCitrate with hydrochlorothiazide are shown individually. * p<0.05 from time zero, ** p<0.01.
In the recently published study by Odvina et al. (Am J Therap 13: 101-108, 2006) that examined the value of KMgCitrate in the prevention of thiazide-induced hypomagnesemia, the unpublished data on blood pressure were extracted. Twenty-one normal subjects participated in the trial. All were started on hydrochorothiazide 50 mg/day. Ten subjects took simultaneously KMgCitrate at a dose of 42 mEq K and […] per day, while 11 subjects received potassium chloride (42 mEq/day). Supine blood pressures were taken before and each month for 5 months. FIG. 3 compares the systolic and diastolic blood pressures between the two groups.

[8] = Tolerability of KMgCitrate; format: in vivo; conditions: usual dosage about 40 mEq potassium, 20 mEq magnesium, 60 mEq citrate
[9] = cited from earlier work; remark: listed apart in the source
[10] = Insulin responsiveness by hyperinsulinemic euglycemic pump procedure, two subjects with uric acid stones (Example 2); format: in vivo, Human; conditions: 49 mEq K, 24.5 mEq Mg per day for 4 weeks
Description: In two subjects with uric acid stones, insulin responsiveness was determined before and after KMgCitrate treatment (49 mEq K, 24.5 mEq Mg per day for 4 weeks) by a hyperinsulinemic euglycemic pump procedure. During intravenous infusion of insulin, glucose was infused at a rate sufficient to maintain a constant glucose concentration. Insulin responsiveness was determined from the glucose disposal rate.

[11] = in vivo; cited from earlier work
[12] = 49 mEq K, 24.5 mEq Mg/day for 3 weeks while continuing hydrochlorothiazide 50 mg/day
[13] = during therapy versus control phase, constant metabolic diet
[14] = during therapy, constant metabolic diet

Question: For `NS(=O)(=O)c1cc2c(cc1Cl)NCNS2(=O)=O` [thiazide, hydrochlorothiazide], which “serum potassium concentration on thiazide alone” value ([1]; hydrochlorothiazide 50 mg/day for 3 weeks, normal subjects) is on record?
Answer: Its value is “decreased significantly to below the normal range in most subjects”.

Question: What about the “serum potassium concentration on thiazide alone” value [2] of the same compound?
Answer: The value was “decreased significantly”.

Question: And the “serum magnesium concentration during thiazide alone versus before treatment” value [3]?
Answer: Its value is “significantly lower”.

Question: For `O=C([O-])CC(O)(CC(=O)[O-])C(=O)[O-].O=C([O-])CC(O)(CC(=O)[O-])C(=O)[O-].[K+].[K+].[K+].[K+].[Mg+2]` [KMgCitrate, tetrapotassium monomagnesium dicitrate], which serum potassium concentration [1, 12] is on record?
Answer: Its serum potassium concentration is “increased significantly”.

Question: And the “serum potassium determinations reaching normal limits” value [1, 12]?
Answer: The value was 81.7%.

Question: What about the “Increment in Urinary Magnesium” value ([1]; Ruml, 49 mEq K qd) of the same compound?
Answer: The value was 38 mg/day.

Question: What about the “Increment in Urinary Potassium” value ([1]; Ruml, 49 mEq K qd) of the same compound?
Answer: The value was 33 mEq/day.

Question: And the “Increment in Urinary Magnesium” value ([4]; Pak, 49 mEq K qd)?
Answer: Its value is 44 mg/day.

Question: What about the “Increment in Urinary Potassium” value ([4]; Pak, 49 mEq K qd) of the same compound?
Answer: The value was 51 mEq/day.

Question: And the alkali load ([4]; at the same dose of potassium, versus potassium citrate)?
Answer: Its alkali load is “greater alkali load than potassium citrate”.

Question: And the “urinary pH” value [4, 13]?
Answer: Its value is “rose from the control phase”.

Question: And the urinary potassium [4, 13]?
Answer: Its urinary potassium is “rose from the control phase”.

Question: And the “inhibitor activity of brushite” value [4, 14]?
Answer: Its value is “increased”.

Question: What about the “inhibitor activity of calcium oxalate” value [4, 14] of the same compound?
Answer: The value was “increased”.

Question: What about the “urinary saturation of calcium oxalate (activity product)” value [4, 14] of the same compound?
Answer: The value was “reduced”.

Question: What about the “urinary saturation of uric acid (content of undissociated uric acid)” value [4, 14] of the same compound?
Answer: Its value is “reduced”.

Question: And the “Increment in Urinary Magnesium” value [5]?
Answer: Its value is 57 to 63 mg/day.

Question: What about the “Increment in Urinary Potassium” value [5] of the same compound?
Answer: Its value is 30–50 mEq/day.

Question: And the “relative risk of treatment failure compared with placebo” value ([6]; 42 mEq K, 21 mEq Mg/day for up to 3 years)?
Answer: The value was 0.16 (95% confidence interval of 0.05-0.46).

Question: And the “patients in whom new calculi formed” value ([6]; 42 mEq K, 21 mEq Mg/day for up to 3 years, placebo 63.6%)?
Answer: Its value is 12.6%.

Question: What about the stone formation rate ([6]; randomized trial, patients with calcium oxalate nephrolithiasis) of the same compound?
Answer: Its stone formation rate is “dramatically reduced”.

Question: And the “fall in diastolic blood pressure (supine)” value [7]?
Answer: Its value is “significant only in the KMgCitrate group”.

Question: What about the “fall in systolic blood pressure (supine)” value [7] of the same compound?
Answer: The value was “significant only in the KMgCitrate group”.

Question: What about the “effect on blood pressure” value [7] of the same compound?
Answer: Its value is “significant reduction”.

Question: And the “tolerability / side effect profile” value [8]?
Answer: Its value is “well tolerated, with a low side effect profile”.

Question: And the “peak excretion rate of urinary potassium” value ([9]; single oral load (KMgCitrate 49 mEq potassium, 24.5 mEq magnesium, 73.5 mEq citrate), timed urine 24 hours, 15 normal volunteers)?
Answer: The value was “comparable to that of potassium citrate and potassium chloride”.

Question: And the “peak excretion rate and peak time of urinary magnesium” value ([9]; single oral load, 24.5-25 mEq magnesium, 15 normal volunteers)?
Answer: Its value is “comparable between KMgCitrate and magnesium citrate”.

Question: And the “cumulative increment in urinary magnesium” value ([9]; single oral load, 24.5-25 mEq magnesium, potassium citrate as control)?
Answer: The value was “equivalent between KMgCitrate and magnesium citrate”.

Question: And the “peak time (time to reach peak excretion rate) of urinary potassium” value ([9]; single oral load, 49-50 mEq potassium, 15 normal volunteers)?
Answer: Its value is “about 4 hours”.

Question: And the “glucose disposal rate after treatment, second patient” value ([10]; 2.2 mg/m^2/min before treatment)?
Answer: The value was 2.8 mg/m^2/min.

Question: And the “glucose disposal rate after treatment, first patient” value ([10]; 3.2 mg/m^2/min before treatment)?
Answer: The value was 4.3 mg/m^2/min.

Question: What about the insulin responsiveness ([10]; hyperinsulinemic euglycemic pump) of the same compound?
Answer: Its insulin responsiveness is “improved insulin responsiveness”.

Question: With `[Cl-].[K+]` [potassium chloride, reference compound] as the compound, how does the urinary calcium [11] read?
Answer: Its urinary calcium is “has no effect”.

Question: What about the “fall in diastolic blood pressure (supine)” value [7] of the same compound?
Answer: Its value is “trend for systolic and diastolic blood pressures to decrease”.

Question: What about the “fall in systolic blood pressure (supine)” value [7] of the same compound?
Answer: Its value is “trend for systolic and diastolic blood pressures to decrease”.

Question: And the “effect on blood pressure” value [7]?
Answer: The value was “no statistically significant effect”.

Question: Which results are given for `O=C([O-])CC(O)(CC(=O)[O-])C(=O)[O-].[K+].[K+].[K+]` [Potassium citrate, potassium citrate, reference compound]?
Answer: urinary citrate [4, 13]: did not raise pH or citrate as much; urinary pH [4, 13]: did not raise pH or citrate as much; urinary magnesium excretion [4, 14]: did not augment

— patent US10251909B2 (Board of Regents, the University of Texas System, priority 2007, dated 2019)
